This note sets out measurements from ChEMBL document CHEMBL1149644, “alpha,alpha-Cyclic aminoacids as useful scaffolds for the preparation of hNK(2) receptor antagonists” (Bioorg Med Chem Lett, 2007).

Series [1] addresses T1, Substance-K receptor (Homo sapiens, UniProt P21452).
T1 sequence (P21452 whole entry): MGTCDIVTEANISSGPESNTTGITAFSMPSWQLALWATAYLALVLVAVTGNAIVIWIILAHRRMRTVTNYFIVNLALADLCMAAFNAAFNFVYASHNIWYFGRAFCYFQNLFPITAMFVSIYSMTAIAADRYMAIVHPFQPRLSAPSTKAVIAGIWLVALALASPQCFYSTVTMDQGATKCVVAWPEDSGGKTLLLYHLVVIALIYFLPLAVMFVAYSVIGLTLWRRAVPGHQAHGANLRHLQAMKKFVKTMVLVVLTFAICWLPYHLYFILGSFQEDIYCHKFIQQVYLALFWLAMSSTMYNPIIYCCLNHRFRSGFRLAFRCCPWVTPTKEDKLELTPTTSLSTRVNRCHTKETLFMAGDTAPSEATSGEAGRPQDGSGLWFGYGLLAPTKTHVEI
Nature of the series: Displacement of [125I]NKA from human NK2 expressed in CHO-K1 cells. The series is classed as cell-based. Background: Displacement assays read how much labelled ligand stays bound in the presence of the test substance.

The target in series [2] is T2, Substance-K receptor (Cavia porcellus, UniProt Q64077).
T2 sequence (Q64077 whole entry): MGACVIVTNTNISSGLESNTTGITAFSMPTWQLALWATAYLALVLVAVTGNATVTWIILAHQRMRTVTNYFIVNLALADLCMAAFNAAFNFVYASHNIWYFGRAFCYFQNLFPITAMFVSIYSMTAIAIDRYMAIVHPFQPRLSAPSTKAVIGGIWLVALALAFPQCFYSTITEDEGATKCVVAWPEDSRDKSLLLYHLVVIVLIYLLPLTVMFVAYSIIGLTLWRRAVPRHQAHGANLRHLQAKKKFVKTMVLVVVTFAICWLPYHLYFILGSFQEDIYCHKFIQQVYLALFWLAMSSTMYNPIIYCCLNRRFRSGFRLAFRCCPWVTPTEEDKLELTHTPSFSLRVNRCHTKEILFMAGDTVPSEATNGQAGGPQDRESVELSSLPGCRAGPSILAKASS
Nature of the series: […] activity at NK2 receptor in guinea pig smooth muscle. The series is classed as functional.

Series [3] is described as follows: Solubility at pH 7.4. The series is classed as physicochemical. Particulars: buffer.
Series [4] in a line: Metabolic stability in guinea pig liver S9 fraction after 30 mins. The series is classed as ADME, subcellular, Cavia porcellus. Particulars: read-out: Stability.

Molecules are shown by their SMILES. Values after ≈ are worked out from the molar mass of the structure shown. Where only a bound is given, the exact number is not on record here.

Usually Ki stands for the equilibrium dissociation constant of an inhibitor or competing ligand from its target. A word on the solubility: it is the dissolved amount per volume that the medium holds. The low end stands for a poorly soluble substance, the high end for a readily soluble substance.

Molecule `CN1CCN(CCCNC(=O)[C@@H](Cc2ccccc2)NC(=O)C2(NC(=O)c3cc4ccccc4s3)CCCC2)CC1` gave a Ki on Substance-K receptor [1] of 2 nM.

`CN1CCN(CCCNC(=O)[C@@H](Cc2ccccc2)NC(=O)C2(NC(=O)c3cc4ccccc4s3)CCCCC2)CC1` had a Ki at Substance-K receptor [1] of 3.98 nM.

For the molecule `NCCCCCNC(=O)[C@H](Cc1ccccc1)NC(=O)C1(NC(=O)c2cc3ccccc3s2)CCCCC1`, at Substance-K receptor [1], affinity was put at a Ki of 398 nM.

In the case of `NCCOCCOCCNC(=O)[C@H](Cc1ccccc1)NC(=O)C1(NC(=O)c2cc3ccccc3s2)CCCCC1`, the affinity on Substance-K receptor [1] corresponds to a Ki of 12.6 nM.

With `NCc1ccc(CNC(=O)[C@H](Cc2ccccc2)NC(=O)C2(NC(=O)c3cc4ccccc4s3)CCCCC2)cc1`, the Ki at Substance-K receptor [1] was 126 nM. This Ki lies about 10-fold higher than the previous one.

For `CCC(CC)(NC(=O)c1cc2ccccc2s1)C(=O)N[C@@H](Cc1ccccc1)C(=O)NCCOCCOCCN`, on Substance-K receptor [1], the Ki is over 1000 nM.

As to `CC(C)(NC(=O)c1cc2ccccc2s1)C(=O)N[C@@H](Cc1ccccc1)C(=O)NCCOCCOCCN`, the Ki at Substance-K receptor [1] was 100 nM. This counts as sub-micromolar.

`NCCOCCOCCNC(=O)[C@H](Cc1ccccc1)NC(=O)CNC(=O)c1cc2ccccc2s1` gave a Ki on Substance-K receptor [1] of over 10000 nM.

As for `NCCCCCCNC(=O)C(Cc1ccccc1)NC(=O)C1(NC(=O)c2cc3ccccc3s2)CCCCC1` (stereo unspecified), the Ki on Substance-K receptor [2] is over 1000 nM; at Substance-K receptor [1], 251 nM.

`CCN(CC)CCCNC(=O)C(Cc1ccccc1)NC(=O)C1(NC(=O)c2cc3ccccc3s2)CCCCC1` (stereo unspecified): the inhibition constant (Ki) at Substance-K receptor [1] was 100 nM.

In the case of `NCCCCCCCCNC(=O)C(Cc1ccccc1)NC(=O)C1(NC(=O)c2cc3ccccc3s2)CCCCC1` (stereo unspecified), the Ki on Substance-K receptor [1] was 126 nM. The Ki values of the last two molecules are within 1.5-fold of each other.

Consider `NCCOCCOCCNC(=O)[C@H](Cc1ccccc1)NC(=O)C1(NC(=O)c2cc3ccccc3s2)Cc2ccccc2C1`, for which the Ki at Substance-K receptor [1] was 20 nM.

On to `CN1CCN(CCCNC(=O)[C@@H](Cc2ccccc2)NC(=O)C2(NC(=O)c3cc4ccccc4s3)Cc3ccccc3C2)CC1`, for which the Ki on Substance-K receptor [2] is 126 nM; on Substance-K receptor [1], 2.51 nM.

`CCN(CC)CCNC(=O)C(Cc1ccccc1)NC(=O)C1(NC(=O)c2cc3ccccc3s2)CCCCC1` (stereo unspecified) gave a Ki at Substance-K receptor [1] of 100 nM.

The molecule `CN1CCN(CCCNC(=O)[C@H](Cc2ccccc2)NC(=O)C2(NC(=O)c3cc4ccccc4s3)CCCCC2)CC1` had a Ki on Substance-K receptor [1] of 100 nM.

The molecule `CCCCN(CCCC)CCCNC(=O)[C@@H](Cc1ccccc1)NC(=O)C1(NC(=O)c2cc3ccccc3s2)CCCCC1` showed a Ki at Substance-K receptor [2] of 200 nM.

As for `O=C(NC1(C(=O)N[C@@H](Cc2ccccc2)C(=O)NCCCN2CCCC2)CCCCC1)c1cc2ccccc2s1`, the Ki on Substance-K receptor [1] was 20 nM. In other words, the double-digit nanomolar range.

As to `O=C(NC1(C(=O)N[C@H](Cc2ccccc2)C(=O)NCCCN2CCCC2)CCCCC1)c1cc2ccccc2s1`, the Ki at Substance-K receptor [2] was over 1000 nM; at Substance-K receptor [1], 3.98 nM.

`O=C(NC1(C(=O)NC(Cc2ccccc2)C(=O)NCCN2CCOCC2)CCCCC1)c1cc2ccccc2s1` (stereo unspecified): the Ki on Substance-K receptor [1] is 100 nM.

Molecule `CN1CCCC1CCCNC(=O)C(Cc1ccccc1)NC(=O)C1(NC(=O)c2cc3ccccc3s2)CCCCC1` (stereo unspecified) gave a Ki on Substance-K receptor [1] of 50.1 nM.

In the case of `CC(C)C[C@@H](NC(=O)[C@H](Cc1ccccc1)NC(=O)C1(NC(=O)c2cc3ccccc3s2)CCCCC1)C(N)=O`, the Ki on Substance-K receptor [1] was 70.8 nM.

With `CC(C)C[C@@H](NC(=O)[C@@H](Cc1ccccc1)NC(=O)C1(NC(=O)c2cc3ccccc3s2)CCCCC1)C(N)=O`, at Substance-K receptor [1], the Ki is 50.1 nM. The Ki values of the last two molecules are within 1.5-fold of each other.

Consider `O=C(NC1(C(=O)N[C@H](Cc2ccccc2)C(=O)NCCCN2CCOCC2)CCCC1)c1cc2ccccc2s1`, for which the concentration in solution in series [3] (solubility) came to 100 µg/mL (≈ 178 µM). The remaining at 0.5 h in series [4] worked out at 4%.

For `NCCOCCOCCNC(=O)[C@H](Cc1ccccc1)NC(=O)C1(NC(=O)c2cc3ccccc3s2)CCc2ccccc21` (stereo partly specified), the Ki at Substance-K receptor [1] was 12.6 nM.

Turning to `NCCOCCOCCNC(=O)[C@H](Cc1ccccc1)NC(=O)C1(NC(=O)c2cc3ccccc3s2)CCc2ccccc2C1` (stereo partly specified), on Substance-K receptor [1], the affinity corresponds to a Ki of 398 nM.

Regarding `CC(C)C[C@H](NC(=O)[C@H](Cc1ccccc1)NC(=O)C1(NC(=O)c2cc3ccccc3s2)CCCCC1)C(N)=O`, at Substance-K receptor [1], the affinity, expressed as Ki, was 10000 nM.

Molecule `O=C(NC1(C(=O)N[C@@H](Cc2ccccc2)C(=O)NC2CC2)CCCCC1)c1cc2ccccc2s1` gave a Ki at Substance-K receptor [1] of 316 nM. Against the preceding molecule, the Ki is about 32-fold lower.

In turn, `CN(C)CCCNC(=O)[C@H](Cc1ccccc1)NC(=O)C1(NC(=O)c2cc3ccccc3s2)CCCCC1` gave a Ki on Substance-K receptor [1] of 316 nM.

On to `O=C(NC1(C(=O)N[C@H](Cc2ccccc2)C(=O)NCCCN2CCCC2)Cc2ccccc2C1)c1cc2ccccc2s1`, for which the Ki is 200 nM at Substance-K receptor [2] and 1.26 nM at Substance-K receptor [1].

For `CC1CCCCN1CCCNC(=O)[C@H](Cc1ccccc1)NC(=O)C1(NC(=O)c2cc3ccccc3s2)CCCCC1` (stereo partly specified), the Ki at Substance-K receptor [2] is over 3160 nM; at Substance-K receptor [1], 7.94 nM.

Consider `CC1CCCCN1CCCNC(=O)[C@@H](Cc1ccccc1)NC(=O)C1(NC(=O)c2cc3ccccc3s2)CCCCC1` (stereo partly specified), for which the results for the Ki at Substance-K receptor [2] and at Substance-K receptor [1] were 200 nM and 0.398 nM, respectively.

With `CCCCN(CCCC)CCCNC(=O)[C@@H](Cc1ccccc1)NC(=O)C1(NC(=O)c2cc3ccccc3s2)Cc2ccccc2C1`, the Ki at Substance-K receptor [2] is 200 nM; on Substance-K receptor [1], 1.58 nM.

Regarding `CCCCN(CCCC)CCCNC(=O)[C@H](Cc1ccccc1)NC(=O)C1(NC(=O)c2cc3ccccc3s2)CCCCC1`, the Ki on Substance-K receptor [1] is 6.31 nM. That is a single-digit nanomolar value.

As for `O=C(NC1(C(=O)N[C@H](Cc2ccccc2)C(=O)NCCCN2CCOCC2)Cc2ccccc2C1)c1cc2ccccc2s1`, the inhibitory constant (Ki) at Substance-K receptor [2] was 100 nM; at Substance-K receptor [1] it was 2 nM.

At Substance-K receptor [1], `NCCOCCOCCNC(=O)[C@H](Cc1ccccc1)NC(=O)C1(NC(=O)c2cc3ccccc3s2)CCCC1` showed a Ki of 50.1 nM.

At Substance-K receptor [1], `CC(C)N(CCNC(=O)C(Cc1ccccc1)NC(=O)C1(NC(=O)c2cc3ccccc3s2)CCCCC1)C(C)C` (stereo unspecified) gave a Ki of 31.6 nM.

Regarding `O=C(NC1(C(=O)N[C@H](Cc2ccccc2)C(=O)NCCCN2CCOCC2)CCCCC1)c1cc2ccccc2s1`, the Ki at Substance-K receptor [2] was 100 nM. This counts as sub-micromolar.

The molecule `CCN(CC)CCCNC(=O)[C@H](Cc1ccccc1)NC(=O)C1(NC(=O)c2cc3ccccc3s2)CCCCC1` gave a Ki on Substance-K receptor [1] of 39.8 nM. That is a double-digit nanomolar value.

As to `NCCCCCCCNC(=O)C(Cc1ccccc1)NC(=O)C1(NC(=O)c2cc3ccccc3s2)CCCCC1` (stereo unspecified), the affinity at Substance-K receptor [1], expressed as Ki, was 100 nM.

Turning to `CC(C)C[C@H](NC(=O)[C@@H](Cc1ccccc1)NC(=O)C1(NC(=O)c2cc3ccccc3s2)CCCCC1)C(N)=O`, at Substance-K receptor [1], the Ki is 316 nM.

The molecule `O=C(NC1(C(=O)NC(Cc2ccccc2)C(=O)NCCN2CCCCC2)CCCCC1)c1cc2ccccc2s1` (stereo unspecified) had a Ki at Substance-K receptor [1] of 63.1 nM.

`O=C(NC1(C(=O)N[C@@H](Cc2ccccc2)C(=O)NCCCN2CCOCC2)CCCCC1)c1cc2ccccc2s1`: the Ki on Substance-K receptor [1] was 25.1 nM. Against the preceding molecule, the Ki is about 2.5-fold lower.

Consider `CCCCN(CCCC)CCCNC(=O)[C@@H](Cc1ccccc1)NC(=O)C1(NC(=O)c2cc3ccccc3s2)CCc2ccccc21` (stereo in doubt; 45a), for which, on Substance-K receptor [1], the Ki was 31.6 nM.

On Substance-K receptor [1], `CCCCN(CCCC)CCCNC(=O)[C@@H](Cc1ccccc1)NC(=O)C1(NC(=O)c2cc3ccccc3s2)CCc2ccccc21` (stereo in doubt; 45b) gave a Ki of 1.58 nM.

Molecule `O=C(NC1(C(=O)N[C@H](Cc2ccccc2)C(=O)NCCCN2CCCC2)CCc2ccccc21)c1cc2ccccc2s1` (stereo in doubt; 46a) had a Ki at Substance-K receptor [1] of 6.31 nM. Against the preceding molecule, the Ki is about 4-fold higher.

As for `O=C(NC1(C(=O)N[C@H](Cc2ccccc2)C(=O)NCCCN2CCCC2)CCc2ccccc21)c1cc2ccccc2s1` (stereo in doubt; 46b), the Ki at Substance-K receptor [1] is 1.26 nM.

On Substance-K receptor [1], `O=C(NC1(C(=O)N[C@H](Cc2ccccc2)C(=O)NCCCN2CCOCC2)CCc2ccccc21)c1cc2ccccc2s1` (stereo in doubt; 47a) showed a Ki of 100 nM.

With `O=C(NC1(C(=O)N[C@H](Cc2ccccc2)C(=O)NCCCN2CCOCC2)CCc2ccccc21)c1cc2ccccc2s1` (stereo in doubt; 47b), the values for the Ki on Substance-K receptor [2] and on Substance-K receptor [1] were 20 nM and 2 nM, respectively.

For `CN1CCN(CCCNC(=O)[C@@H](Cc2ccccc2)NC(=O)C2(NC(=O)c3cc4ccccc4s3)CCc3ccccc32)CC1` (stereo in doubt; 48a), the Ki at Substance-K receptor [1] was over 100 nM.

As for `CN1CCN(CCCNC(=O)[C@@H](Cc2ccccc2)NC(=O)C2(NC(=O)c3cc4ccccc4s3)CCc3ccccc32)CC1` (stereo in doubt; 48b), the values for the Ki at Substance-K receptor [2] and on Substance-K receptor [1] were 25.1 nM and 1 nM, respectively.
